# Laboratory results taken from patent US9764002B2, “Dosage regimen for therapeutic method” (MADELEINE PHARMACEUTICALS PTY LTD, priority 2013, dated 2017).
# Peptide text beside a SMILES is read from it.
# How the values were obtained:
# [1] = human, in vivo
# Experimental: In our clinical studies, lead patients were dosed at 900 μg/h for 6 hours based on the standard calculation shown earlier to reach a target steady state blood plasma concentration of 10 ng/ml and plasma levels of VSDL measured. Six hours is more than five half-lives for VSDL and, as such, should result in a steady state blood plasma concentration. Having verified the target steady state blood plasma concentration from lead patients, then Cohort 1 “Part 1” received 900 μg/h for 12 hours so as to achieve target steady state blood plasma concentration. However, the target steady state blood plasma concentration was not observed and as such the dosing regime required modification. After significant postulation and modelling of the hypothetical behaviour of VSDL, the multimodal dosage regime was developed. Cohort 1 “Part 2” was introduced using the bimodal dosing regime in an effort to reach a steady state blood plasma concentration of 10 ng/ml. Cohort 1 “Part 2” patients received VSDL at 900 μg/h (ie initial dosage rate) for 5 hours (ie initial period), followed by 550 μg/h for 7 hours (ie maintenance dosage rate).
# [2] = clinical; settings: human, in vivo
# Experimental: A cohort of 10 subjects with stable CHF and undergoing standard of care treatment was treated with the formulation as follows: • i) 2 sentinel subjects were treated with a one stage 6 hour sc infusion of VSDL at 900 μg/h (Subjects 1 and 3) • ii) 5 subjects were treated with a one stage 12 hour sc infusion of VSDL at 900 μg/h (Subjects 102, 103, 104, 105 and 106); and • iii) 3 subjects were treated with a bimodal sc infusion of VSDL at 900 μg/h for 5 hours and then 550 μg/h for 7 hours (Subjects 111, 112 and 114). The dose regimen for this trial was designed using a pharmacokinetic model for VSDL based on prior data. The final model was used to simulate the median and 90% prediction intervals for 1000 patients given VSDL at 900 μg/h for 5 h then 550 μg/h for 7 h. This dose regimen targeted a population value of 10 ng/ml for the period 6-12 h after the start of the infusion. The predictions of the model were compared to observed VSDL concentration data from the three subjects referred to at iii) above. A model where infusion rate (ml/h) and delivered volume (ml) affected KA was an acceptable empirical description of the data. This model reproduced the observed increase in VSDL concentrations at the end of a subcutaneous infusion. The net effect was generally that KA increased with time during subcutaneous infusions. […] The final model had acceptable predictive performance based on the Visual Predictive Checks (allowing for low number of subjects).
# [3] = human, in vivo; remark: listed apart in the source
structure (smiles),measurement,setting,value
CC(C)C[C@H](NC(=O)[C@H](C)NC(=O)[C@H](C)NC(=O)CNC(=O)[C@H](C)NC(=O)[C@H](CCC(=O)O)NC(=O)[C@H](CCC(=O)O)NC(=O)[C@H](CC(N)=O)NC(=O)[C@@H]1CCCN1C(=O)[C@H](CCC(=O)O)NC(=O)[C@H](CO)NC(=O)[C@H](CC(C)C)NC(=O)[C@@H](NC(=O)[C@H](CCC(N)=O)NC(=O)[C@@H]1CCCN1C(=O)[C@@H]1CCCN1C(=O)[C@@H](NC(=O)[C@@H](NC(=O)[C@@H](N)CCC(=O)O)C(C)C)C(C)C)C(C)C)C(=O)N[C@@H](CO)C(=O)N1CCC[C@H]1C(=O)N[C@@H](CC(C)C)C(=O)N1CCC[C@H]1C(=O)N[C@@H](CCC(=O)O)C(=O)N[C@H](C(=O)N1CCC[C@H]1C(=O)N1CCC[C@H]1C(=O)N[C@@H](Cc1c[nH]c2ccccc12)C(=O)N[C@H](C(=O)NCC(=O)N[C@@H](CCC(=O)O)C(=O)N[C@H](C(=O)N[C@@H](CO)C(=O)N1CCC[C@H]1C(=O)N[C@@H](C)C(=O)N[C@@H](CCC(N)=O)C(=O)N[C@@H](CCCNC(=N)N)C(=O)O)C(C)C)[C@@H](C)O)C(C)C [VSDL] (H-EVVPPQVLSEPNEEAGAALSPLPEVPPWTGEVSPAQR-OH; N-terminus and C-terminus assumed),plasma concentration reached on continued increase beyond Css,[1],30 ng/mL
same,Css reached when the dose was doubled,[1]; sc,20 ng/mL
same,steady state blood plasma concentration of VSDL (Css) achieved,[1]; sc,10 ng/mL
same,"KA Absorption rate constant, Pop value",[2],0.265 h⁻¹
same,"KARATE Effect of infusion rate of KA, Pop value",[2],−0.135
same,"KAVOL Effect of infusion volume on KA, Pop value",[2],0.222
same,"LGT1 Logit F value, Pop value",[2],−1.05
same,"V Central volume, Pop value",[2],8.93 L
same,influence of creatinine clearance (CCL) and body mass index (BMI) on VSDL elimination kinetics,[2],minor
same,clearance,"[2]; CL Clearance, Pop value",263 mL/min
same,clearance,"[2]; CL Maximum Elimination rate, Pop value",447 mL/min
same,"V2 Multiplier of V for sc bolus, Pop value",[2]; sc,1.596
same,"V3 Multiplier of V for sc infusion, Pop value",[2]; sc,3.142
same,bioavailability,"[2]; sc, F Bioavailability, Pop value",25.9%
same,symptomatic hypotension from blood pressure drops,[3],none of these resulted in symptomatic hypotension
